In US8530462B2, “Indole modulators of S1P receptors” (Allergan, Inc., priority 2010, dated 2013):

Biological target: T1, human S1P1 receptor (Homo sapiens, UniProt P21453)
T1 construct: expressed in transfected cells; membranes were used
Experiment: GTP γ35S binding assay, S1P1 receptor activity
Type: biochemical
Conditions: for EC50: membranes of cells stably expressing the S1P1 receptor, test compounds 0.08 to 5,000 nM; for % stimulation: S1P1 receptor, agonist-induced stimulation
Protocol: The S1P1 activity of the compounds according to the invention, were tested using the GTP γ^35S binding assay. The compounds were assessed for their ability to activate or block activation of the human S1P1 receptor in cells stably expressing the S1P1 receptor.
GTP γ^35S binding was measured in the medium containing (mM) HEPES 25, pH 7.4, MgCl2 10, NaCl 100, dithitothreitol 0.5, digitonin 0.003%, 0.2 nM GTP γ^35S, and 5 μg membrane protein in a volume of 150 μl. Test compounds were included in the concentration range from 0.08 to 5,000 nM unless indicated otherwise. Membranes were incubated with 100 μM 5′-adenylylimmidodiphosphate for 30 min, and subsequently with 10 μM GDP for 10 min on ice. Drug solutions and membrane were mixed, and then reactions were initiated by adding GTP γ^35S and continued for 30 min at 25° C. Reaction mixtures were filtered over Whatman GF/B filters under vacuum, and washed three times with 3 mL of ice-cold buffer (HEPES 25, pH7.4, MgCl2 10 and NaCl 100). Filters were dried and mixed with scintillant, and counted for ^35S activity using a β-counter. Agonist-induced GTP γ^35S binding was obtained by subtracting that in the absence of agonist. Binding data were analyzed using a non-linear regression method. In case of antagonist assay, the reaction mixture contained 10 nM S1P in the presence of test antagonist at concentrations ranging from 0.08 to 5000 nM.
Activity potency: S1P1 receptor from GTP γ^35S: nM, (EC50), % stimulation, […]

T1 sequence (P21453 whole entry): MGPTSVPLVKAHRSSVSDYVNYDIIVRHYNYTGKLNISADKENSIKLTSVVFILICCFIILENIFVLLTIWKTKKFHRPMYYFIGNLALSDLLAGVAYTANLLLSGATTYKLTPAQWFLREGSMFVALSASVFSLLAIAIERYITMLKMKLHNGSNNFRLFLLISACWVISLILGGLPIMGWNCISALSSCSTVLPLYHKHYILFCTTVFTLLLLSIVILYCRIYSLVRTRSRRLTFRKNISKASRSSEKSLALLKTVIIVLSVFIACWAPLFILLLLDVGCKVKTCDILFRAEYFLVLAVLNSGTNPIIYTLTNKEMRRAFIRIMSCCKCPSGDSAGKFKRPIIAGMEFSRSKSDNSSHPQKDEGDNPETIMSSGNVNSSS

Row | SMILES | EC50 | % stimulation
1 | CNc1ncccc1-c1noc(-c2cn(Cc3ccc(C)c(C)c3)c3ccc(F)cc23)n1 [Compound 11, 3-{5-[1-(3,4-dimethylbenzyl)-5-fluoro-1H-indol-3-yl]-1,2,4-oxadiazol-3-yl}-N-methylpyridin-2-amine] | 569 nM | 
2 | Cc1ccc(Cn2cc(-c3nc(-c4ccc(CN5CC(C(=O)O)C5)cc4)no3)c3cc(F)ccc32)cc1C [Compound 2, 1-(4-{5-[1-(3,4-dimethylbenzyl)-5-fluoro-1H-indol-3-yl]-1,2,4-oxadiazol-3-yl}benzyl)azetidine-3-carboxylic acid] | 737 nM | 94%
3 | Cc1ccc(Cn2c(C)c(-c3nc(-c4ccc(CN5CC(C(=O)O)C5)cc4)no3)c3cc(F)ccc32)cc1C [Compound 9, 1-(4-{5-[1-(3,4-dimethylbenzyl)-5-fluoro-2-methyl-1H-indol-3-yl]-1,2,4-oxadiazol-3-yl}benzyl)azetidine-3-carboxylic acid] | 1000 nM | 85%
4 | COc1ccc2c(c1)c(-c1nc(-c3ccc(CN4CC(C(=O)O)C4)cc3)no1)c(C)n2Cc1ccc(C)c(C)c1 [Compound 3, 1-(4-{5-[1-(3,4-dimethylbenzyl)-5-methoxy-2-methyl-1H-indol-3-yl]-1,2,4-oxadiazol-3-yl}benzyl)azetidine-3-carboxylic acid] | 1560 nM | 82%
5 | Cc1ccc(Cn2cc(-c3nc(-c4ccc(CN5CC(C(=O)O)C5)cc4)no3)c3ccccc32)cc1C [Compound 4, 1-(4-{5-[1-(3,4-dimethylbenzyl)-1H-indol-3-yl]-1,2,4-oxadiazol-3-yl}benzyl)azetidine-3-carboxylic acid] | 1020 nM | 92%
6 | c1ccc(Cn2cc(-c3nc(-c4ccc(Cn5ccnc5)cc4)no3)c3ccccc32)cc1 [Compound 6, 1-benzyl-3-{3-[4-(1H-imidazol-1-ylmethyl)phenyl]-1,2,4-oxadiazol-5-yl}-1H-indole] | 1160 nM | 86%
7 | O=C(O)C1CN(Cc2ccc(-c3noc(-c4cn(Cc5ccccc5)c5ccc(F)cc45)n3)cc2)C1 [Compound 5, 1-{4-[5-(1-benzyl-5-fluoro-1H-indol-3-yl)-1,2,4-oxadiazol-3-yl]benzyl}azetidine-3-carboxylic acid] | 189 nM | 91%
8 | CNc1ncccc1-c1noc(-c2cn(Cc3ccccc3)c3ccccc23)n1 [Compound 10, 3-[5-(1-benzyl-1H-indol-3-yl)-1,2,4-oxadiazol-3-yl]-N-methylpyridin-2-amine] | 703 nM | 88%
9 | O=C(O)C1CN(Cc2ccc(-c3noc(-c4cn(Cc5ccccc5)c5ccccc45)n3)cc2)C1 [Compound 8, 1-{4-[5-(1-benzyl-1H-indol-3-yl)-1,2,4-oxadiazol-3-yl]benzyl}azetidine-3-carboxylic acid] | 494 nM | 66%
10 | Cc1ccc2c(c1)c(-c1nc(-c3ccc(CN4CC(C(=O)O)C4)cc3)no1)cn2Cc1ccc(C)c(C)c1 [Compound 1, 1-(4-{5-[1-(3,4-dimethylbenzyl)-5-methyl-1H-indol-3-yl]-1,2,4-oxadiazol-3-yl}benzyl)azetidine-3-carboxylic acid] | 426 nM | 92%

More lines, now with the values ahead:

Row | EC50 | % stimulation | SMILES
11 | 351 nM | 82% | Cc1ccc2c(c1)c(-c1nc(-c3ccc(CNCCC(=O)O)cc3)no1)cn2Cc1ccc(C)c(C)c1 [Compound 13, 3-[(4-{5-[1-(3,4-dimethylbenzyl)-5-methyl-1H-indol-3-yl]-1,2,4-oxadiazol-3-yl}benzyl)amino]propanoic acid]
12 | 1440 nM | 81% | Cc1ccc(Cn2cc(-c3nc(-c4ccc(CNCCC(=O)O)cc4)no3)c3ccccc32)cc1C [Compound 16, 3-[(4-{5-[1-(3,4-dimethylbenzyl)-1H-indol-3-yl]-1,2,4-oxadiazol-3-yl}benzyl)amino]propanoic acid]
13 | 129 nM | 100% | O=C(O)CCNCc1ccc(-c2noc(-c3cn(Cc4ccccc4)c4ccc(F)cc34)n2)cc1 [Compound 17, 3-({4-[5-(1-benzyl-5-fluoro-1H-indol-3-yl)-1,2,4-oxadiazol-3-yl]benzyl}amino)propanoic acid]
14 | 1490 nM | 93% | Cc1ccc(Cn2cc(-c3nc(-c4ccc(CNCCC(=O)O)cc4)no3)c3cc(F)ccc32)cc1C [Compound 14, 3-[(4-{5-[1-(3,4-dimethylbenzyl)-5-fluoro-1H-indol-3-yl]-1,2,4-oxadiazol-3-yl}benzyl)amino]propanoic acid]
15 | 1010 nM | 108% | O=C(O)CCCCNCc1ccc(-c2noc(-c3cn(Cc4ccccc4)c4ccccc34)n2)cc1 [Compound 15, 5-({4-[5-(1-benzyl-1H-indol-3-yl)-1,2,4-oxadiazol-3-yl]benzyl}amino)pentanoic acid]
16 | 394 nM |  | O=C(O)CCNCc1ccc(-c2noc(-c3cn(Cc4ccccc4)c4ccccc34)n2)cc1 [Compound 12, 3-({4-[5-(1-benzyl-1H-indol-3-yl)-1,2,4-oxadiazol-3-yl]benzyl}amino)propanoic acid]
